The source of these data is patent US20100184820A1, “COMBINATIONS COMPRISING STAUROSPORINES” (priority 2006, published 2010).

Where two headings read alike, the source gives them in different places.

What is called EC50 is the concentration at which the effect is half-maximal. A lower EC50 goes with higher potency in that assay. One may read the IC50 as the concentration at which inhibition is half-maximal.

Common to all, as to type: cell-based, human
Data set [1] has as its system HMC-1.2 cells. Briefly: induction of apoptosis (percentage of apoptotic cells on Wright-Giemsa-stained cytospin slides). As to conditions: for EC50: Homo sapiens, incubated with drugs for 24 hours. As for the experimental part:
(§1) Scramble control represents a mixture of A (adenine), G (guanine), T (thymine), and C (cytosine) bases, the resulting preparation containing an equimolar mixture of oligonucleotides. […] For transfection, 800,000 cells are seeded in 75 cm^2 culture plates at 37° C. for 24 hours. Mcl-1-ASO and Mcl-1 siRNA are complexed with Lipofectin-Reagent (Invitrogen) in RPMI 1640 medium essentially as described. […] After exposure to ASO, cells are washed and cultured in RPMI 1640 medium with 10% FCS in the presence or absence of various concentrations of TK inhibitors for another 12 hours before being analyzed. siRNA-treated cells are kept in control medium for 12 hours (without TK inhibitors) before being examined for the percentage of apoptotic cells and Western blotting.
(§2) Thereafter, 1 μCi ^3H-thymidine is added to each well. Sixteen hours later, cells are harvested on filter membranes (Packard Bioscience, Meriden, Conn.) in a Filtermate 196 harvester (Packard Bioscience). Filters are then air-dried, and the bound radioactivity is measured in a β-counter (Top-Count NXT, Packard Bioscience). All experiments are performed in triplicates. Cell viability is determined by the trypan blue exclusion test. The percentage of apoptotic cells is determined on Wright-Giemsa-stained cytospin slides employing conventional cytomorphologic criteria.
(§3) METHOD: Effects of mcl-1 antisense oligonucleotides on Mcl-1 protein expression and cell viability in HMC-1.1 and HMC-1.2 cells are analyzed. […] Western Blot analysis of Mcl-1 expression is performed using an anti-Mcl-1 antibody. β-Actin served as loading control. Evaluation of non-viable (trypan blue-positive) cells is expressed as percentage of all nucleated cells. Numbers (%) of apoptotic cells. Results represent the mean±S.D. from 3 independent experiments.
(§4) METHOD: [001] Effects of mcl-1-siRNA are analyzed in neoplastic mast cells on expression of Mcl-1 protein and cell viability in HMC-1.1 cells and HMC-1.2 cells. Cells are left untransfected (Control) or are transfected with either an mcl-1-specific siRNA (mcl-1-siRNA; 200 nM) or a luciferase-specific (control)-siRNA (luc-siRNA; 200 nM) as described herein. Mcl-1 protein expression is determined by Western blotting using a polyclonal anti-Mcl -1 antibody. Equal loading is confirmed by probing for β-Actin. Cell viability is analyzed by recording the percentage (%) of apoptotic cells. Results represent the mean±S.D. from 3 independent experiments in each set of experiments.
(§5) Mcl-1 protein expression is determined by Western blotting using a polyclonal anti-Mcl-1 antibody. Equal loading is confirmed by probing for β-Actin. Cell viability is analyzed by recording the percentage (%) of apoptotic cells.

Data set [2] concerns HMC-1.1 cells. The description is as above. As to conditions: for EC50: Homo sapiens, incubated with drugs for 24 hours. The procedure: as §1, §2, §3, §4, §5
Data set [3] concerns HMC-1.2 cells. The experiment in a line: 3H-thymidine incorporation assay. The settings on record: for IC50: Homo sapiens, read-out: 3H-thymidine uptake (IC50) HMC-1.2. The procedure: (§6) The human mast cell line HMC-1 generated from leukemic cells in a patient with MCL48 are obtained (Mayo Clinic, Rochester, Minn.). […] HMC-1 cells are re-thawed from an original stock every 4 to 8 weeks and passaged weekly. As control of ‘phenotypic stability’, HMC-1 cells are periodically checked for expression of KIT and the down-modulating effect of IL-4 (100 U/ml, 48 hours).
(§7) In a separate set of experiments, HMC-1 cells are transfected with mcl-1-specific ASO before being exposed to inhibitory drugs (see below). […] After exposure to drugs or/and ASO, cells are subjected to ^3H-thymidine uptake experiments, analysis of cell viability and apoptosis, or Western blotting.
(§8) Thereafter, 1 μCi ^3H-thymidine is added to each well. […] Filters are then air-dried, and the bound radioactivity is measured in a β-counter (Top-Count NXT, Packard Bioscience). All experiments are performed in triplicates. Cell viability is determined by the trypan blue exclusion test. The percentage of apoptotic cells is determined on Wright-Giemsa-stained cytospin slides employing conventional cytomorphologic criteria.
(Dividing cells build labelled thymidine or BrdU into new DNA.)

The subject of data set [4] is HMC-1.1 cells. The experiment in a line: 3H-thymidine incorporation assay. As to conditions: for IC50: Homo sapiens, read-out: 3H-thymidine uptake (IC50) HMC-1.1; for cell growth / proliferation (in words): HMC-1.1. The procedure: as §6, §7, §8
Data set [5] concerns Mcl-1 protein. Briefly: Western blot analysis of Mcl-1 protein expression in HMC-1.2 cells. The settings on record: for expression of the Mcl-1 protein after targeted drugs: HMC-1.2 exhibiting KIT D816V, PKC412 1-10 μM, 2CdA 10-100 ng/ml, nilotinib and imatinib over the dose range tested. As for the experimental part: (§9) Western blot analysis is performed as described previously using lysates of HMC-1 cells and a polyclonal rabbit anti-human Mcl-1 antibody (Santa Cruz Biotechnology, Santa Cruz, Calif.). In brief, cells are lysed in phosphate buffered saline (PBS) containing 1% Triton-X-100 (Sigma, St. Louis, Mo.). Proteins are separated under reducing conditions by SDS-polyacrylamide gel electrophoresis and transferred to nitrocellulose membranes (Protran, Schleicher & Schuell, Dassel, Germany) in transfer buffer. Membranes are then exposed to anti-mouse/anti-rabbit IgG (BM Chemiluminescence Western blotting Kit, Roche). […] Chemiluminescence is detected by exposure to a Biomax MS film (Kodak).
as §3, §4, §5
(Immunoblotting shows a protein as a band on a membrane.)

For data set [6], the system named is Mcl-1 protein. Briefly: Western blot analysis of Mcl-1 protein expression in HMC-1.1 cells. As to conditions: for expression of the Mcl-1 protein after targeted drugs: HMC-1.1 lacking KIT D816V, PKC412 0.3-10 μM, nilotinib 10-300 nM, imatinib 30-300 nM, 2CdA up to 1,000 ng/ml. As for the experimental part:
as §9, §3, §4, §5

Data set [7] relates to HMC-1.1 cells. Briefly: combination of mcl-1 ASO and targeted drugs, combination index (CalcuSyn). As to conditions: drug combined with mcl-1 ASO. As for the experimental part:
To determine the level of significance in differences found in the evaluation of data, the paired student t-test is applied.
Results are expressed as percent of control (=scramble control) without targeted drug and represent the mean±SD of 3 independent experiments are analyzed. […] Results represent the mean±SD of 3 independent experiments. […] A combination index (CI) less than 1 indicates synergism.

[8] abbreviates: 24 hours of incubation with drug.

For `Nc1nc(Cl)nc2c1ncn2[C@H]1C[C@H](O)[C@@H](CO)O1` [2CdA, 2-chlorodeoxyadenosine], the EC50 in the data set on HMC-1.2 cells [1] and in the data set with HMC-1.1 cells [2] was above 1 µg/mL in each case. For the same compound, in the data set with HMC-1.1 cells [2] (HMC-1.1), the “induction of apoptosis (in words)” value is “no significant effect”. The IC50 in the data set on HMC-1.2 cells [3] (setting [8]) lay in the range of 0.005 to 0.02 µg/mL; with HMC-1.1 cells [4] (setting [8]) it was 0.1 to 0.3 µg/mL.
In the case of `Cc1ccc(NC(=O)c2ccc(CN3CCN(C)CC3)cc2)cc1Nc1nccc(-c2cccnc2)n1` [Imatinib], the “expression of the Mcl-1 protein after targeted drugs” value (from here on “expression … after targeted drugs”) with Mcl-1 protein [5] is recorded as “no significant effects”; in the data set on Mcl-1 protein [6], “down-regulate expression”. Besides, the “induction of apoptosis (in words)” value with HMC-1.1 cells [2] (HMC-1.1) was “induce apoptosis”.
As for “mcl-1 siRNA: double-stranded mcl-1 siRNA (AAGAAACGCGGUAAUCGGACU, SEQ ID NO:8, and AGUCCGAUUACCGCGUUUCUU, SEQ ID NO:9) (chain 1 AAGAAACGCGGUAAUCGGACU; chain 2 AGUCCGAUUACCGCGUUUCUU; listed as RNA, chemistry not given here; listed as Homo sapiens)”, the “expression of the Mcl-1 protein” value with Mcl-1 protein [5] (HMC-1.2, siRNA 200 nM) is recorded as “downregulate expression”; with Mcl-1 protein [6] (HMC-1.1, siRNA 200 nM), “downregulate expression”. Moreover, the apoptotic cells entry is listed as “increase in apoptotic cells” in the data set with HMC-1.2 cells [1] (HMC-1.2, siRNA 200 nM, 12 hours) and “increase in apoptotic cells” in the data set with HMC-1.1 cells [2] (HMC-1.1, siRNA 200 nM, 12 hours).
As to `Cc1cn(-c2cc(NC(=O)c3ccc(C)c(Nc4nccc(-c5cccnc5)n4)c3)cc(C(F)(F)F)c2)cn1` [nilotinib, 4-methyl-3-[[4-(3-pyridinyl)-2-pyrimidinyl]amino]-N-[5-(4-methyl-1H-imidazol-1-yl)-3-(trifluoromethyl)phenyl]benzamide], the “expression … after targeted drugs” value in the data set on Mcl-1 protein [5] was “no significant effects”; with Mcl-1 protein [6] it was “down-regulate expression”. In the data set on HMC-1.1 cells [7], the “drug interaction with mcl-1 ASO (synergism, combination index less than 1)” value is “only synergistic in HMC-1.1 cells”. For the same compound, the EC50 is above 10000 nM in the data set with HMC-1.2 cells [1] and 30 to 80 nM in the data set on HMC-1.1 cells [2]. Besides, the “induction of apoptosis (in words)” value in the data set with HMC-1.1 cells [2] (HMC-1.1) is recorded as “induce apoptosis”. For the same compound, the IC50 with HMC-1.2 cells [3] (24 hours of incubation with drugs) was in the range of 1000 to 3000 nM; with HMC-1.1 cells [4] (24 hours of incubation with drugs or transfection with ASO), 3 to 10 nM. Also, in the data set on HMC-1.1 cells [4], the “cell growth / proliferation (in words)” value is “reduce cell growth”.
As to `CO[C@@H]1[C@H](N(C)C(=O)c2ccccc2)C[C@H]2O[C@]1(C)n1c3ccccc3c3c4c(c5c6ccccc6n2c5c31)C(=O)NC4` [PKC412, N-[(9S,10R,11R,13R)-2,3,10,11,12,13-hexahydro-10-methoxy-9-methyl-1-oxo-9,13-epoxy-1H,9H-diindolo[1,2,3-gh:3′,2′,1′-lm]pyrrolo[3,4-j][1,7]benzodiazonin-11-yl]-N-methylbenzamide], the results for the “expression … after targeted drugs” value with Mcl-1 protein [5] and in the data set on Mcl-1 protein [6] were “decreased the expression” and “down-regulate expression”, respectively. In the data set on HMC-1.1 cells [2] (HMC-1.1), the “induction of apoptosis (in words)” value is listed as “induce apoptosis”. Moreover, the “cell growth / proliferation (in words)” value with HMC-1.2 cells [3] (HMC-1.2, pharmacologically relevant concentrations) is “counteract cell growth”; in the data set with HMC-1.1 cells [4], “reduce cell growth”.
